The target in data set [1] is T1, hERG (Kv11.1, KCNH2) (Homo sapiens, UniProt Q12809). Kind of data set: in vitro.
Description: MMV: Malaria Box compounds were tested for inhibition of the human ether a go-go related gene (hERG), Kv11.1 channel, using IonWorks 384-well patch clamp electrophysiology at 1.1uM (3 independent assay plates up to 12 cells per concentration).
The target in data set [2] is T1, hERG (Kv11.1, KCNH2). Kind of data set: in vitro. This is another data set of the same source.
Description: MMV: Malaria Box compounds were tested for inhibition of the human ether a go-go related gene (hERG), Kv11.1 channel, using IonWorks 384-well patch clamp electrophysiology at 11.1uM (3 independent assay plates up to 12 cells per concentration).

This is an account of results in ChEMBL document CHEMBL3301458, “MMV Malaria Box hERG screening”.

Activity calls are given as the source filed them. How the calls were made is not given here.

T1 sequence (Q12809 whole entry): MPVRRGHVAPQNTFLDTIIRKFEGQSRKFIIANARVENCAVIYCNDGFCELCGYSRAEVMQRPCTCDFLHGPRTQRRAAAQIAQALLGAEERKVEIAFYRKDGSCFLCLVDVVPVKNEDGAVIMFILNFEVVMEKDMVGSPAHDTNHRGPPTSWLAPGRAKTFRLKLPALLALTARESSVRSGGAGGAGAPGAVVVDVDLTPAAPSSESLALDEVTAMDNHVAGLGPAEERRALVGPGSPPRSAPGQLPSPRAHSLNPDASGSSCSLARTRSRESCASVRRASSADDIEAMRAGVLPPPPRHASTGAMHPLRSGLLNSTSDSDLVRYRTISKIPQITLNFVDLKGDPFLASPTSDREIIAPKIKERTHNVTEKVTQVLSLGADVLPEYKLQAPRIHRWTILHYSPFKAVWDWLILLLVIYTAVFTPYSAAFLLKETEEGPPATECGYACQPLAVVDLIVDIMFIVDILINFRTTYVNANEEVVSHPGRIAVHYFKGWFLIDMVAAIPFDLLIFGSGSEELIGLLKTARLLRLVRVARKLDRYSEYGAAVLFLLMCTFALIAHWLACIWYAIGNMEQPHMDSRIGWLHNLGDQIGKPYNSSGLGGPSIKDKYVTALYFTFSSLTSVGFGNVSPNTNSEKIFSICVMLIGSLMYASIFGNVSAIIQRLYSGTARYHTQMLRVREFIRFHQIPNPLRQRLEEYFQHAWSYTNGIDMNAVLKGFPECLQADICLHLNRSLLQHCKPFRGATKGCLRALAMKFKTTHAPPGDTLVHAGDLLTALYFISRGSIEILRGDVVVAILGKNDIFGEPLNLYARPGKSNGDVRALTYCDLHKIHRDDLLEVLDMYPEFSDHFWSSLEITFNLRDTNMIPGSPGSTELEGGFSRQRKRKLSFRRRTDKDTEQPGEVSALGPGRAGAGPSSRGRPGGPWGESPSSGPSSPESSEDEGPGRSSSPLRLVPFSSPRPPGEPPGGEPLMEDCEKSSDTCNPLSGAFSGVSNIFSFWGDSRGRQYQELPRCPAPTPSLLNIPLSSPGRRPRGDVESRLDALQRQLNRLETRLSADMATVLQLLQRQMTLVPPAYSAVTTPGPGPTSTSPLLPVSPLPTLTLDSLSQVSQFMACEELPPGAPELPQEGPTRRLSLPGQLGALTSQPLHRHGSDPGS

Regarding `O=C(Nc1ccccc1O)c1ccc(Oc2cccc(C(=O)Nc3ccccc3O)c2)cc1`, the inhibition at 1.1 µM against hERG (Kv11.1, KCNH2) [1] was -2%. Also, on hERG (Kv11.1, KCNH2) [2], the inhibition at 11.1 µM is 5% (inactive).

Consider `N=c1n(CCN2CCCCC2)c2ccccc2n1CC(O)c1cccc(Br)c1` (stereo not given), for which the inhibition at 1.1 µM at hERG (Kv11.1, KCNH2) [1] is 18%. The inhibition at 11.1 µM at hERG (Kv11.1, KCNH2) [2] is 73% (active).

`Cc1ccc(-c2cc(C(=O)Nc3ccc(S(=O)(=O)N4CCCCC4)cc3)[nH]n2)c(O)c1`: the inhibition at 1.1 µM on hERG (Kv11.1, KCNH2) [1] was -1%. For the same compound, the inhibition at 11.1 µM on hERG (Kv11.1, KCNH2) [2] is 8% (inactive).

In the case of `COc1cc(C(=O)Nc2ccc(-c3nc4ccccc4[nH]3)cc2)cc(OC)c1OC`, the inhibition at 1.1 µM against hERG (Kv11.1, KCNH2) [1] is -12%. For the same compound, on hERG (Kv11.1, KCNH2) [2], the inhibition at 11.1 µM is 17% (inactive).

On to `c1ccc(-c2ccc(-c3nc4ccccc4[nH]3)cc2)cc1`, for which the inhibition at 1.1 µM on hERG (Kv11.1, KCNH2) [1] was -2%. Further, the inhibition at 11.1 µM at hERG (Kv11.1, KCNH2) [2] was -8% (inactive).

Regarding `COc1cccc(NC(=O)[C@H](C(C)C)n2c(=O)[nH]c3ccccc3c2=O)c1`, the inhibition at 1.1 µM at hERG (Kv11.1, KCNH2) [1] amounted to 2%. At hERG (Kv11.1, KCNH2) [2], the inhibition at 11.1 µM was 17% (inactive).

In the case of `COc1ccc2nc(N)nc(C)c2c1`, the inhibition at 1.1 µM on hERG (Kv11.1, KCNH2) [1] amounted to 10%. The inhibition at 11.1 µM at hERG (Kv11.1, KCNH2) [2] was 4% (inactive).

For the compound `CCC(c1ccccc1)c1nn2c(-c3cccs3)nnc2s1` (stereo not given), the inhibition at 1.1 µM against hERG (Kv11.1, KCNH2) [1] is 8%. Moreover, the inhibition at 11.1 µM against hERG (Kv11.1, KCNH2) [2] came out at 42%.

Take `CC(Oc1ccc(NC(=O)c2cccs2)cc1)C(=O)c1ccc(Cl)cc1` (stereo not given): the inhibition at 1.1 µM on hERG (Kv11.1, KCNH2) [1] was -4%. The inhibition at 11.1 µM on hERG (Kv11.1, KCNH2) [2] was 55% (active).

As to `CCCCNc1nc(NC(C)(C)C)nc(NC(C)(C)C)n1`, at hERG (Kv11.1, KCNH2) [1], the inhibition at 1.1 µM was -1%. In addition, the inhibition at 11.1 µM at hERG (Kv11.1, KCNH2) [2] is 1% (inactive).

Regarding `COc1ccc(CNC(=O)c2cc3c(=O)n4ccccc4nc3n(CCc3ccccc3)c2=N)cc1`, the inhibition at 1.1 µM against hERG (Kv11.1, KCNH2) [1] was 10%. Moreover, on hERG (Kv11.1, KCNH2) [2], the inhibition at 11.1 µM was found to be 45%.

`Cc1cc(Nc2ccc(C)c(Cl)c2)n2nc(C(F)(F)F)nc2n1`: the inhibition at 1.1 µM at hERG (Kv11.1, KCNH2) [1] came to 23%. Moreover, on hERG (Kv11.1, KCNH2) [2], the inhibition at 11.1 µM is 72% (active).

With `CC(=O)c1sc(NC(=O)Nc2ccc(C)cc2C)nc1C`, the inhibition at 1.1 µM at hERG (Kv11.1, KCNH2) [1] came out at 7%. The inhibition at 11.1 µM against hERG (Kv11.1, KCNH2) [2] came out at 38%.

With `Cn1c(=O)n(C)c2cc(CNCCNc3ccnc4cc(Cl)ccc34)ccc21`, at hERG (Kv11.1, KCNH2) [1], the inhibition at 1.1 µM is 16%. The inhibition at 11.1 µM at hERG (Kv11.1, KCNH2) [2] was 60% (active).

For `O=C(c1ccccc1F)N(Cc1ccc(Cl)cc1)c1ccccn1`, the inhibition at 1.1 µM on hERG (Kv11.1, KCNH2) [1] was determined as 7%. Moreover, the inhibition at 11.1 µM on hERG (Kv11.1, KCNH2) [2] was 22% (inactive).

For `COCCn1c(C)nc2ccccc2c1=O`, the inhibition at 1.1 µM against hERG (Kv11.1, KCNH2) [1] was 3%. Besides, at hERG (Kv11.1, KCNH2) [2], the inhibition at 11.1 µM is 1% (inactive).

On to `O=C(Nc1cccc(-c2nc3ccccc3[nH]2)c1)c1cccc(NC(=O)c2ccco2)c1`, for which, on hERG (Kv11.1, KCNH2) [1], the inhibition at 1.1 µM was -6%. In addition, at hERG (Kv11.1, KCNH2) [2], the inhibition at 11.1 µM was 6% (inactive).

Turning to `O=C(Nc1ccc(CN2CCOCC2)cc1)c1ccc(-c2ccc(Br)cc2)o1`, the inhibition at 1.1 µM on hERG (Kv11.1, KCNH2) [1] came out at 42%. Besides, the inhibition at 11.1 µM at hERG (Kv11.1, KCNH2) [2] is 98% (active).

Consider `CC(C)(C)C(=O)Nc1ccc(C(=O)Nc2cccc(-c3nc4ccccc4[nH]3)c2)cc1`, for which, at hERG (Kv11.1, KCNH2) [1], the inhibition at 1.1 µM came to 8%. Besides, the inhibition at 11.1 µM on hERG (Kv11.1, KCNH2) [2] stood at 40%.

Turning to `COc1ccc(-c2nonc2NC(=O)c2cccc(C)c2)cc1OC`, the inhibition at 1.1 µM on hERG (Kv11.1, KCNH2) [1] is 5%. The inhibition at 11.1 µM on hERG (Kv11.1, KCNH2) [2] is -3% (inactive).

Take `OC(CNC1CCCCC1)Cn1c2ccc(I)cc2c2cc(I)ccc21` (stereo not given): the inhibition at 1.1 µM against hERG (Kv11.1, KCNH2) [1] is -5%. Further, the inhibition at 11.1 µM on hERG (Kv11.1, KCNH2) [2] was 12% (inactive).

With `COc1ccc(N2CCN(C(CNC(=O)CC(C)(C)C)c3ccc4c(c3)OCO4)CC2)cc1` (stereo not given), on hERG (Kv11.1, KCNH2) [1], the inhibition at 1.1 µM was -5%. Further, at hERG (Kv11.1, KCNH2) [2], the inhibition at 11.1 µM was 24% (inactive).

Regarding `CCOc1ccc(-c2nc(NC(=O)c3cccc(S(C)(=O)=O)c3)sc2C)cc1`, the inhibition at 1.1 µM at hERG (Kv11.1, KCNH2) [1] was 3%. In addition, on hERG (Kv11.1, KCNH2) [2], the inhibition at 11.1 µM came to 29%.

In the case of `COc1ccccc1N1CCN(C(CNS(=O)(=O)c2ccc(Cl)cc2)c2cccnc2)CC1` (stereo not given), the inhibition at 1.1 µM at hERG (Kv11.1, KCNH2) [1] worked out at 4%. Further, the inhibition at 11.1 µM against hERG (Kv11.1, KCNH2) [2] came to 44%.

On to `CCOc1c(Cl)cc(CNC(C)C(O)c2ccccc2)cc1OC` (stereo not given), for which the inhibition at 1.1 µM on hERG (Kv11.1, KCNH2) [1] is -4%. For the same compound, the inhibition at 11.1 µM against hERG (Kv11.1, KCNH2) [2] was 39%.

The term inhibition denotes the relative decrease from the control value, in per cent.
